In paper PMC11009625, “Antibiotic class with potent in vivo activity targeting lipopolysaccharide synthesis in Gram-negative bacteria” (Proceedings of the National Academy of Sciences of the …, 2024) one finds MIC and microsomal CLint data, which are given here for five compounds.

The MIC is the lowest concentration found to suppress growth. As usually defined, the microsomal CLint is the rate of metabolic loss divided by the concentration.

Values after ≈ are worked out from the molar mass of the structure shown. Read-outs that look alike come from different tables or passages of the source.

For data set [1], the system named is Staphylococcus aureus ATCC 29213. Nature of the data set: MIC, S. aureus. It is filed as cell-based. The protocol:
(§1) Minimum inhibitory concentration (MIC) values were determined according to the Clinical Laboratory Standards Institute guidelines. Frequency of resistance was determined by plating ~5 × 10^8 bacterial cells on agar-solidified media plates containing test compound at concentrations corresponding to four times the measured solid-media MIC of the strains. Colonies were counted after 24 h, restreaked onto media containing the same concentration of compound, and the MIC remeasured against the assayed compound. Genomic DNA from isolated clones was sequenced by paired-end sequencing on an Illumina MiSeq device. Complete experimental details available in SI Appendix.
Cytotoxicity. The cytotoxicity assay was performed in HepG2 cells as previously described(10) […]
Minimum inhibitory concentration (MIC) determination. Broth microdilution and agar dilution MIC assays were conducted according to CLSI guidelines (M07-2012). Appropriate inoculation suspension density was assessed using a Sensititre Nephelometer with a Sensititre 0.5 McFarland Standard. Serum MICs were conducted in 50% heat-inactivated pooled human serum (Sigma-Aldrich). Serum was heated to 56 °C for one hour and then filtered using a 0.2 µm […]
Hemolysis. Hemolysis was conducted as previously described (11).
Frequency of Resistance. Frequency of resistance was assessed by spread plating between […] cfu of a freshly-grown culture of the strain of interest on plates containing a concentration of compound corresponding to 4 times the MIC of the strain (as determined by agar-dilution MIC). […] The frequency of resistance was determined by dividing the number of colonies obtained on the selective plates after 24 hours of growth by the calculated total population plated. […]
Whole-genome sequencing and data analysis. […] Whole-genome sequencing data was analyzed using CLC Genomics Workbench Version 11. To determine the genotype of MDR strains from the ENABLE strain collection, de novo assembled contigs were analyzed using ResFinder (12–14) […]

The nature of data set [2]: Metabolic stability in mouse liver microsomes. It is filed as in vitro ADME. The conditions noted are these: pH 7.4. The protocol: Thermodynamic solubility was assessed by dissolving 2 to 3 mg of test compound to equilibrium in 100 mM KPO4-buffer, pH 7.4. The metabolic stability assay was performed in the presence of human and mouse liver microsomes by measurement of test compounds disappearance over time (60 min). The plasma protein binding assay, including stability estimation, was performed using the RED devices (Thermo Fisher Scientific) in the presence of human and mouse plasma. All samples from the in vitro ADME studies were quantified by liquid chromatography-triple quadrupole mass spectrometry (LC–MS/MS). The assays were performed as previously described ([36]) and the details are available in SI Appendix. Cytotoxicity was assessed by incubation of test compounds in the presence of HepG2 cells for 72 h as previously described ([37]). […]
The plate is then sealed, centrifuged and the supernatant is analysed by liquid
chromatography coupled to triple quadrupole mass spectrometry (LC-MS/MS).
Metabolic stability in the presence of human and animal liver microsomes. Metabolic stability
was determined in 0.5 mg/ml human or animal liver microsomes at a compound concentration
of 1 μM in 100 mM KPO4 buffer pH 7.4 in a total incubation volume of 500 μl. The reaction was
initiated by addition of 1 mM NADPH. At various incubation times, i.e. at 0, 5, 10, 20, 40 and 60
min, a sample was withdrawn from the incubation and the reaction was terminated by addition
of cold acetonitrile with warfarin as an internal standard. […]
Liquid chromatography coupled to triple quadrupole mass spectrometry (LC-MS/MS). The test
compounds were optimized on a Waters Acquity UPLC XEVO TQ-S micro system (Waters Corp.)
operating in multiple reaction monitoring (MRM) mode with positive or negative electrospray
ionization. Compounds were optimized by using the QuanOptimize software (Waters Corp.).
For chromatographic separation, a C18 BEH 1.7 µm column was used, with a general gradient of
1% to 90% of mobile phase B over a total running time of 2 min. Mobile phase A consisted of
5% acetonitrile and 0.1% formic acid in purified water, and mobile phase B of 0.1% formic acid
in 100% acetonitrile. The flow rate was set to 0.5 ml/min and 5 µL of the sample was injected.
(Microsomes from liver hold many membrane-bound enzymes, among them those of drug oxidation.)

Data set [3] concerns A. baumanii BM4454 and efflux-defective BM4652. Nature of the data set: MIC, A. baumannii laboratory strains. The data set is classed as cell-based. The conditions noted are these: Acinetobacter baumannii. The protocol: as §1, with “Appendix. […]” for “Appendix.”
Minimum inhibitory concentration (MIC) determination. Broth microdilution and agar dilution
MIC assays were conducted according to CLSI guidelines (M07-2012). Appropriate inoculation
suspension density was assessed using a Sensititre Nephelometer with a Sensititre 0.5
McFarland Standard. Serum MICs were conducted in 50% heat-inactivated pooled human

The mark [4] stands for this setting: ATCC29213, read-out: MIC S. aureus ATCC 29213.
The mark [5] stands for this setting: read-out: MIC A. baumanii BM4454.
Setting [6] is: read-out: MIC A. baumanii BM4652.

With `CN(c1ccccc1C(=O)Nc1ccc(S(=O)(=O)N2CCN(c3cccc(C(F)(F)F)c3)CC2)cc1)S(C)(=O)=O` [JEDI-1444], the MIC in data set [1] (setting [4]) was over 64 µg/mL. The compound further returned a microsomal CLint at 1 µM in data set [2] of 126 µL/min/mg.
As to `Cc1cc(C#N)nc(N2CCN(S(=O)(=O)c3ccc(NC(=O)c4ccccc4N(C)S(C)(=O)=O)cc3)CC2)n1` [EBL-3339], the microsomal CLint at 1 µM in data set [2] came out at 625 µL/min/mg.
In data set [2], `CN(c1ccc(CNCCN)cc1C(=O)Nc1ccc(S(=O)(=O)N2CCN(c3cc(Cl)cc(Cl)c3)CC2)cc1)S(C)(=O)=O` [EBL-3025] registered a microsomal CLint at 1 µM of 31 µL/min/mg. Compared with the last compound, the microsomal CLint at 1 µM is about 20-fold lower.
Consider `Cc1cc(C#N)nc(N2CCN(S(=O)(=O)c3ccc(NC(=O)c4cc(CN5CC(CN)C5)ccc4N(C)S(C)(=O)=O)cc3)CC2)n1` [EBL-3647], for which the MIC in data set [3] (setting [5]) was over 64 µg/mL; in data set [3] (setting [6]) it was 64 µg/mL (≈ 95.8 µM); in data set [1] (setting [4]) it was over 64 µg/mL. The microsomal CLint at 1 µM in data set [2] was under 5 µL/min/mg.
Regarding `Cc1cc(C#N)nc(N2CCN(S(=O)(=O)c3ccc(NC(=O)c4cc(CNCCCN)ccc4N(C)S(C)(=O)=O)cc3)CC2)n1.Cl.Cl` [EBL-3599], the MIC in data set [3] (setting [5]) was over 64 µg/mL; in data set [3] (setting [6]), 32 µg/mL; in data set [1] (ATCC29213, WT, read-out: MIC S. aureus ATCC 29213), over 64 µg/mL. In addition, the microsomal CLint at 1 µM in data set [2] was under 5 µL/min/mg.
